# Read-outs that look alike come from different tables or passages of the source.
# Columns and labels:
# [1] = tested on: bronchi; conditions: in vivo; cited from earlier work
# [2] = tested on: passive cutaneous anaphylaxis (PCA) reaction; assay: passive cutaneous anaphylaxis (PCA) test, i.v. or oral administration; assay type: in vivo, male Charles River Wistar rats
# Experimental: In the PCA test, normal animals are injected intradermally (i.d.) with antibodies contained in serum obtained from actively sensitized animals. The animals are then challenged intravenously with antigen mixed with a dye such as Evans' Blue. The increased capillary-permeability caused by the antigen-antibody reaction causes the dye to leak from the site of the antibody injection. The test animals are then asphyxiated and the intensity of the reaction determined by measuring the diameter and intensity of the blue coloration on the inner surface of the animals skin. […] The ability of agents to interfere with PCA reactions is measured in male Charles River Wistar rats, 170-210 g. […] Hyperimmune antisera to hen egg albumin is prepared according to Orange, et al., J. Exptl. […] Forty-eight hours prior to antigen challenge the reaginic antisera is injected intradermally (i.d.) into the shaved skin of a normal rat's back; 5 hours before challenge the hyperimmune antisera is similarly injected; 5 hours later, at a third site, 60 mcg. histamine dihydrochloride is injected i.d. as a check for antihistaminic and unspecific types of blockage; the compounds of the instant invention or saline are then administered i.v. and immediately followed by 2.5 mg. Evan's blue dye and 5 mg. egg albumin in saline. In the case of oral administration Evan's blue dye and egg albumen are given five minutes after administration of the drug. Thirty minutes later the animals are asphyxiated using chloroform and the skin of the back removed and reversed for observation. A score is assigned each injection site equal to the product of the diameter of the site in mm. and a grade of 0.1, 0.5, 1, 2, 3 or 4 proportional to intensity of dye coloration. The scores for a given injection site are summed for each group of 8 animals and compared to the saline treated controls. The difference is expressed as percent blockade due to the compound employed. […] Disodium cromoglycate, a commerial antiallergy agent, is included for comparison. [drawing 3]
# [3] = intravenous toxicity in mice
# [4] = tested on: PCA reaction; assay: PCA reaction test after aerosol administration (nebulizer); assay type: in vivo, rats
# [5] = hypotension and bradycardia in dogs; assay type: in vivo
# [6] = tested on: bronchial asthma; conditions: in vivo; cited from earlier work
# [7] = Rattus norvegicus, iv, I.V., read-out: degree (%) of protection, PCA test
# [8] = Rattus norvegicus, Oral, read-out: degree (%) of protection, PCA test
smiles,measurement,setting,value
"O=c1[nH]cnc2cc3ccccc3cc12 [Benzo[g]quinazolin-4(3H)-one, reference compound]",bronchodilator activity,[1],active as a bronchodilator
same,inhibition in vivo at 3 mg/kg,[2]; [7],31%
"CCOC(=O)c1nc2nc3cc(OC)c(OC)cc3cc2c(=O)[nH]1 [COOC2 H5/H/H/OCH3/OCH3/H, Ethyl 7,8-dimethoxypyrimido[4,5-b]quinolin-4(3H)-one-2-carboxylate]",intravenous dose that did not cause death in mice,"[3]; intravenous, mice",1000 mg/kg
same,toxicity,"[3]; mouse, in vivo",relatively free of toxicity
same,concentration of solutions giving concentration related responses by aerosol,[4],0.3 to 30 mg/mL
same,inhibition in vivo at 0.003 mg/kg,"[2]; Rattus norvegicus, iv, I.V., 0.003 mg/kg, read-out: degree (%) of protection, PCA test",36%
same,inhibition in vivo at 0.01 mg/kg,"[2]; Rattus norvegicus, iv, I.V., 0.01 mg/kg, read-out: degree (%) of protection, PCA test",70%
same,inhibition in vivo at 0.03 mg/kg,"[2]; Rattus norvegicus, iv, I.V., 0.03 mg/kg, read-out: degree (%) of protection, PCA test",75%
same,inhibition in vivo at 0.1 mg/kg,[2]; [7],90%
same,inhibition in vivo at 0.3 mg/kg,[2]; [7],90%
same,inhibition in vivo at 1 mg/kg,[2]; [7],100%
same,minimal effective dose,"[2]; Rattus norvegicus, iv, read-out: intravenously active at a level as low as",0.003 mg/kg
same,inhibition in vivo at 0.03 mg/kg,"[2]; Rattus norvegicus, Oral, 0.03 mg/kg (so in the source), read-out: degree (%) of protection, PCA test",30%
same,inhibition in vivo at 1 mg/kg,[2]; [8],51%
same,inhibition in vivo at 3 mg/kg,[2]; [8],75%
same,inhibition in vivo at 10 mg/kg,[2]; [8],80%
same,routes of administration by which active,"[2]; rat, in vivo","active via the oral, intravenous, intraperitoneal and inhalation routes of administration"
same,hypotension and bradycardia,[5],marked but transient hypotension and bradycardia
"O=C(O)c1cc(=O)c2c(OCC(O)COc3cccc4oc(C(=O)O)cc(=O)c34)cccc2o1 [Disodium chromoglycate, 1,3-bis-(2-carboxychromon-5-yloxy)-2-hydroxypropane, reference compound]",efficacy by route of administration,[6],lack of oral efficacy
same,bronchodilator activity,[1],not a bronchodilator
same,inhibition in vivo at 0.1 mg/kg,[2]; [7],19%
same,inhibition in vivo at 0.3 mg/kg,[2]; [7],29%
same,inhibition in vivo at 1 mg/kg,[2]; [7],56%
same,inhibition in vivo at 3 mg/kg,[2]; [7],78%
same,inhibition in vivo at 10 mg/kg,[2]; [7],89%
same,inhibition in vivo at 30 mg/kg,[2]; [7],99%
same,inhibition in vivo at 100 mg/kg,[2]; [7],100%
same,inhibition in vivo at 100 mg/kg,[2]; [8],0%
"CCOC(=O)CNC(=O)c1nc2nc3cc(OC)c(OC)cc3cc2c(=O)[nH]1 [N-carbethoxymethyl 7,8-dimethoxypyrimido-[4,5-b]quinolin-4(3H)-one-2-carboxamide]",inhibition in vivo at 3 mg/kg,[2]; [7],32%
same,inhibition in vivo at 30 mg/kg,[2]; [7],96%
"CCOC(=O)c1nc2ncccc2c(=O)[nH]1 [OC2 H5/H/H/H (Formula III), Ethyl Pyrido[2,3-d]Pyrimidin-4(3H)-One-2-Carboxylate]",inhibition in vivo at 10 mg/kg,[2]; [7],95%
same,inhibition in vivo at 100 mg/kg,[2]; [8],0%
CN[C@@H](C)[C@H](O)c1ccccc1 [ephedrine],bronchodilator activity,[1],orally efficacious bronchodilator
CNC[C@H](O)c1ccc(O)c(O)c1 [epinephrine],bronchodilator activity,[1],bronchodilator effects
CC(C)NCC(O)c1ccc(O)c(O)c1 (centres unmarked) [isoproterenol],bronchodilator activity,[1],potent aerosol bronchodilator
"O=c1[nH]cnc2nc3ccccc3cc12 [pyrimido[4,5-b]quinolin-4(3H)-one, reference compound]",inhibition in vivo at 3 mg/kg,[2]; [7],33%
CC(C)(C)NCC(O)c1ccc(O)c(CO)c1 (centres unmarked) [solbutamol],bronchodilator activity,[1],"potent bronchodilator of prolonged duration, and active via both oral and aerosol administration"
Cn1c(=O)c2[nH]cnc2n(C)c1=O [theophylline],bronchodilator activity,[1],"generally less potent than the sympathomimetic amines such as isoproterenol and solbutamol, and are ineffective in aerosol administration"

# — patent US4044134A, “Fused pyrimidin-4(3H)-ones as antiallergy agents” (Pfizer Inc., priority 1976, dated 1977)
